Results as given in ChEMBL document CHEMBL5375952, “Discovery of Novel 8-Hydroxyquinoline Derivatives with Potent In Vitro and In Vivo Antifungal Activity” (J Med Chem, 2023).
In brackets after ≈: the same amount, converted by molar mass.

Columns and labels:
[1] = system: Candida albicans; assay: Antifungal activity against Candida albicans 21 assessed as fungal growth inhibition incubated for 48 hrs by broth microdilution method; assay type: functional
[2] = system: Candida albicans; assay: Antifungal activity against Candida albicans 22 assessed as fungal growth inhibition incubated for 48 hrs by broth microdilution method; assay type: functional
[3] = system: Candida albicans; assay: Antifungal activity against Candida albicans SC5314 assessed as fungal growth inhibition incubated for 48 hrs by broth microdilution method; assay type: functional
[4] = system: Nakaseomyces glabratus; assay: Antifungal activity against Candida glabrata 205 assessed as fungal growth inhibition incubated for 48 hrs by broth microdilution method; assay type: functional
[5] = Cytotoxicity against human Caco-2 cells assessed as cell growth inhibition incubated for 24 hrs by CCK8 assay; assay type: toxicity, cell-based
[6] = system: Candida parapsilosis; assay: Antifungal activity against Candida parapsilosis 125 assessed as fungal growth inhibition incubated for 48 hrs by broth microdilution method; assay type: functional; conditions: Lodderomyces parapsilosis
[7] = system: Pichia kudriavzevii; assay: Antifungal activity against Candida krusei 69 assessed as fungal growth inhibition incubated for 48 hrs by broth microdilution method; assay type: functional
[8] = system: Pichia kudriavzevii; assay: Antifungal activity against Candida krusei 68 assessed as fungal growth inhibition incubated for 48 hrs by broth microdilution method; assay type: functional
[9] = system: Candida parapsilosis; assay: Antifungal activity against Candida parapsilosis 105 assessed as fungal growth inhibition incubated for 48 hrs by broth microdilution method; assay type: functional; conditions: Lodderomyces parapsilosis
[10] = system: Aspergillus fumigatus; assay: Antifungal activity against Aspergillus fumigatus 7544 assessed as fungal growth inhibition incubated for 48 hrs by broth microdilution method; assay type: functional
[11] = system: Candida tropicalis; assay: Antifungal activity against Candida tropicalis 184 assessed as fungal growth inhibition incubated for 48 hrs by broth microdilution method; assay type: functional
[12] = system: Cryptococcus neoformans; assay: Antifungal activity against Cryptococcus neoformans 445 assessed as fungal growth inhibition incubated for 48 hrs by broth microdilution method; assay type: functional
[13] = system: Cryptococcus neoformans; assay: Antifungal activity against Cryptococcus neoformans 444 assessed as fungal growth inhibition incubated for 48 hrs by broth microdilution method; assay type: functional
[14] = system: Candida tropicalis; assay: Antifungal activity against Candida tropicalis 176 assessed as fungal growth inhibition incubated for 48 hrs by broth microdilution method; assay type: functional
[15] = system: Nakaseomyces glabratus; assay: Antifungal activity against Candida glabrata 202 assessed as fungal growth inhibition incubated for 48 hrs by broth microdilution method; assay type: functional
[16] = system: Aspergillus fumigatus; assay: Antifungal activity against Aspergillus fumigatus 023-12 assessed as fungal growth inhibition incubated for 48 hrs by broth microdilution method; assay type: functional
[17] = system: Nakaseomyces glabratus; assay: Antifungal activity against Candida glabrata 201 assessed as fungal growth inhibition incubated for 48 hrs by broth microdilution method; assay type: functional
[18] = system: Cryptococcus neoformans; assay: Antifungal activity against Cryptococcus neoformans 443 assessed as fungal growth inhibition incubated for 48 hrs by broth microdilution method; assay type: functional
[19] = system: Pichia kudriavzevii; assay: Antifungal activity against Candida krusei 477 assessed as fungal growth inhibition incubated for 48 hrs by broth microdilution method; assay type: functional
[20] = system: Candida parapsilosis; assay: Antifungal activity against Candida parapsilosis 107 assessed as fungal growth inhibition incubated for 48 hrs by broth microdilution method; assay type: functional; conditions: Lodderomyces parapsilosis
[21] = system: Candida tropicalis; assay: Antifungal activity against Candida tropicalis 178 assessed as fungal growth inhibition incubated for 48 hrs by broth microdilution method; assay type: functional
[22] = system: Aspergillus fumigatus; assay: Antifungal activity against Aspergillus fumigatus A assessed as fungal growth inhibition incubated for 48 hrs by broth microdilution method; assay type: functional

| SMILES | MIC [1] [µg/mL] | MIC [2] [µg/mL] | MIC [3] [µg/mL] | further results |
| --- | --- | --- | --- | --- |
| CC(C)C(=O)NC(c1ccc(F)c(Cl)c1)c1ccc2cccnc2c1O (configuration not stated) | 0.25 (≈ 0.671 µM) | 0.5 (≈ 1.34 µM) | 0.5 (≈ 1.34 µM) |  |
| CN(C)c1ccc(C(NC(=O)Cc2ccccc2)c2ccc3cccnc3c2O)cc1 (configuration not stated) | 0.5 (≈ 1.22 µM) | 2 (≈ 4.86 µM) | 0.25 (≈ 0.608 µM) |  |
| COc1ccccc1C(NC(=O)Cc1ccccc1)c1ccc2cccnc2c1O (configuration not stated) | < 0.125 | 0.125 (≈ 0.314 µM) | 0.125 (≈ 0.314 µM) | MIC [4]: 0.5 µg/mL (≈ 1.25 µM); IC50 at 24 h [5]: > 64 µg/mL; MIC [6]: 0.125 µg/mL (≈ 0.314 µM); MIC [7]: 0.25 µg/mL (≈ 0.627 µM); MIC [8]: 0.125 µg/mL (≈ 0.314 µM); MIC [9]: 0.125 µg/mL (≈ 0.314 µM); MIC [10]: 2 µg/mL (≈ 5.02 µM); MIC [11]: > 64 µg/mL; MIC [12]: 0.5 µg/mL (≈ 1.25 µM); MIC [13]: 0.125 µg/mL (≈ 0.314 µM); MIC [14]: > 64 µg/mL; MIC [15]: 0.125 µg/mL (≈ 0.314 µM); MIC [16]: 2 µg/mL (≈ 5.02 µM); MIC [17]: 0.125 µg/mL (≈ 0.314 µM); MIC [18]: 0.125 µg/mL (≈ 0.314 µM); MIC [19]: 0.25 µg/mL (≈ 0.627 µM); MIC [20]: 0.125 µg/mL (≈ 0.314 µM); MIC [21]: > 64 µg/mL; MIC [22]: 2 µg/mL (≈ 5.02 µM) |
| COc1ccc(C(NC(=O)CC(C)C)c2ccc3cccnc3c2O)cc1OC (configuration not stated) | 0.5 (≈ 1.27 µM) | 0.5 (≈ 1.27 µM) | 0.5 (≈ 1.27 µM) |  |
| OCCN1CCN(C(c2ccccc2)c2ccc3cccnc3c2O)CC1 (configuration not stated) | 1 (≈ 2.75 µM) | 1 (≈ 2.75 µM) | 1 (≈ 2.75 µM) |  |
| CCC(=O)NC(c1ccc(C)cc1)c1ccc2cccnc2c1O (configuration not stated) | 0.5 (≈ 1.56 µM) | 0.5 (≈ 1.56 µM) | 0.5 (≈ 1.56 µM) |  |
| COc1ccccc1C(NC(=O)C(C)C)c1cc(Cl)c2cccnc2c1O (configuration not stated) | 64 (≈ 166 µM) | > 64 | > 64 |  |
| O=C(Cc1ccccc1)NC(c1ccc(F)c(Cl)c1)c1ccc2cccnc2c1O (configuration not stated) | 0.5 (≈ 1.19 µM) | 1 (≈ 2.38 µM) | 0.5 (≈ 1.19 µM) |  |
| CC(C)C(=O)NC(c1ccc(OC(F)(F)F)cc1)c1ccc2cccnc2c1O (configuration not stated) | 1 (≈ 2.47 µM) | 1 (≈ 2.47 µM) | 0.5 (≈ 1.24 µM) |  |
| O=C(Cc1ccccc1)NC(c1ccc(C(F)(F)F)cc1)c1ccc2cccnc2c1O (configuration not stated) | 1 (≈ 2.29 µM) | 2 (≈ 4.58 µM) | 1 (≈ 2.29 µM) |  |
| CC(C)C(=O)NC(c1ccc(Cl)c(Cl)c1)c1ccc2cccnc2c1O (configuration not stated) | 0.25 (≈ 0.642 µM) | 1 (≈ 2.57 µM) | 1 (≈ 2.57 µM) |  |
| CCC(=O)NC(c1cccc([N+](=O)[O-])c1)c1ccc2cccnc2c1O (configuration not stated) | 4 (≈ 11.4 µM) | 4 (≈ 11.4 µM) | 4 (≈ 11.4 µM) |  |
| CC(C)C(=O)NC(c1ccc(Cl)cc1)c1ccc2cccnc2c1O (configuration not stated) | 0.25 (≈ 0.705 µM) | 0.5 (≈ 1.41 µM) | 1 (≈ 2.82 µM) |  |
| Cc1ccc(C(NC(=O)CC(C)C)c2ccc3cccnc3c2O)cc1 (configuration not stated) | 0.125 (≈ 0.359 µM) | 0.125 (≈ 0.359 µM) | 0.125 (≈ 0.359 µM) | MIC [4]: 0.125 µg/mL (≈ 0.359 µM); IC50 at 24 h [5]: 32 µg/mL (≈ 91.8 µM); MIC [6]: 0.125 µg/mL (≈ 0.359 µM); MIC [7]: 0.125 µg/mL (≈ 0.359 µM); MIC [8]: 0.125 µg/mL (≈ 0.359 µM); MIC [9]: 0.032 µg/mL (≈ 0.0918 µM); MIC [10]: 0.5 µg/mL (≈ 1.43 µM); MIC [11]: 0.125 µg/mL (≈ 0.359 µM); MIC [12]: 0.016 µg/mL (≈ 0.0459 µM); MIC [13]: 0.016 µg/mL (≈ 0.0459 µM); MIC [14]: 0.032 µg/mL (≈ 0.0918 µM); MIC [15]: 0.125 µg/mL (≈ 0.359 µM); MIC [16]: 0.25 µg/mL (≈ 0.717 µM); MIC [17]: 0.125 µg/mL (≈ 0.359 µM); MIC [18]: 0.016 µg/mL (≈ 0.0459 µM); MIC [19]: 0.125 µg/mL (≈ 0.359 µM); MIC [20]: 0.125 µg/mL (≈ 0.359 µM); MIC [21]: 0.032 µg/mL (≈ 0.0918 µM); MIC [22]: 0.5 µg/mL (≈ 1.43 µM) |
| CCN(CC)c1ccc(C(NC(=O)Cc2ccccc2)c2ccc3cccnc3c2O)cc1 (configuration not stated) | 1 (≈ 2.28 µM) | 2 (≈ 4.55 µM) | 0.5 (≈ 1.14 µM) |  |
| COc1ccc(C(NC(C)=O)c2ccc3cccnc3c2O)c(OC)c1 (configuration not stated) | 4 (≈ 11.4 µM) | 4 (≈ 11.4 µM) | 4 (≈ 11.4 µM) |  |
| O=C(Cc1ccccc1)NC(c1ccc(OC(F)F)cc1)c1ccc2cccnc2c1O (configuration not stated) | 0.5 (≈ 1.15 µM) | 0.5 (≈ 1.15 µM) | 1 (≈ 2.3 µM) |  |
| CC(=O)NC(c1ccccc1Cl)c1ccc2cccnc2c1O (configuration not stated) | 8 (≈ 24.5 µM) | 8 (≈ 24.5 µM) | 8 (≈ 24.5 µM) |  |
| CC(C)C(=O)NC(c1ccccc1Cl)c1ccc2cccnc2c1O (configuration not stated) | 2 (≈ 5.64 µM) | 2 (≈ 5.64 µM) | 2 (≈ 5.64 µM) |  |
| O=C(Cc1ccccc1)NC(c1ccc(Cl)cc1)c1ccc2cccnc2c1O (configuration not stated) | 0.25 (≈ 0.621 µM) | 1 (≈ 2.48 µM) | 2 (≈ 4.96 µM) |  |
| CCCC(=O)NC(c1ccccc1)c1ccc2cccnc2c1O (configuration not stated) | 1 (≈ 3.12 µM) | 1 (≈ 3.12 µM) | 1 (≈ 3.12 µM) |  |
| COc1ccc(C(NC(=O)C(C)C)c2ccc3cccnc3c2O)cc1 (configuration not stated) | 0.5 (≈ 1.43 µM) | 1 (≈ 2.85 µM) | 2 (≈ 5.71 µM) |  |
| O=C(Cc1ccccc1)NC(c1ccc(OC(F)(F)F)cc1)c1ccc2cccnc2c1O (configuration not stated) | 1 (≈ 2.21 µM) | 2 (≈ 4.42 µM) | 2 (≈ 4.42 µM) |  |
